Consider one compound from patent publication US20230233695A1, “MITHRAMYCIN A NANOPARTICLES FOR CANCER TREATMENT” (priority 2021, published 2023).

The IC50 is the midpoint of a concentration-inhibition curve.

“And” between values parts separate entries of the source, which are not always exact repeats. Equal values may be shown once. Read-outs that look alike come from different tables or passages of the source.

For one data set, the system named is RD-ES. Nature of the data set: XTT cell viability assay, RD-ES. Conditions: 72 h, read-out: Viability IC50. The format is cell-based. The protocol: (§1) Cell viability assays. For viability assays, four EWS:Fli1 fusion tumor cell lines (RD-ES, SK-ES-1, A673, and TC-71), one human embryonic kidney cell line (293.T), one ES tumor cell line with ERG fusion (CHLA-25), one fetal kidney cell line (HEK293.T), one hepatoblastoma cell line (HepG2), one chronic myeloid leukemia (MEG-01), and one acute monocytic leukemia (THP-1) cell line were plated at 5000 cells/well in 100 μL growth media in 96-well plates. After overnight incubation, 50 μL of growth media containing mithramycin A (MithA) (Cayman Chemical, Ann Arbor, Mi. Item Number 11434) or boronic acid-conjugated nano-MithA (MANP) (0.12 nM to 500 nM, final) or dimethyl sulfoxide (DMSO, 0.01% v/v) vehicle was added to the wells, and cell viability assays were performed 72 hours later. The cells were incubated with the activated-XTT solution (mixture of 2% final concentration of activation reagent with the XTT reagent) from ATCC (Catalog Number 30-1011K, XTT Cell Proliferation Assay Kit) for 3 hours prior to recording absorbance. The cell viability was determined by measuring the absorbance wavelength at 475 nm and reference wavelength at 650 nm on an Infinite M200 plate reader (Tecan Group, Ltd. Mannedorf, Switzerland). […]
For orientation: Formazan colour is commonly taken as a measure of viable cells.

For a further data set, the system named is SK-ES-1. Nature of the data set: XTT cell viability assay, SK-ES-1. The format is cell-based. The note with it: Homo sapiens, SK-ES1, 72 h, read-out: Viability IC50. The protocol:
as §1

The subject of a further data set is TC-71. As to the kind of experiment: XTT cell viability assay, TC-71. The format is cell-based. The note with it: TC-71, 72 h, read-out: Viability IC50. The protocol: as §1
A further data set concerns HEK293.T. As to the kind of experiment: XTT cell viability assay, HEK293.T. The format is cell-based. Conditions: Homo sapiens, HEK-293T, 72 h, read-out: Viability IC50. The protocol: as §1
Another data set concerns HepG2. As to the kind of experiment: XTT cell viability assay, HepG2. The format is cell-based, human. The protocol:
as §1

Another data set deals with MEG-01. As to the kind of experiment: XTT cell viability assay, MEG-01. The format is cell-based. Conditions: read-out: Viability IC50, MEG-01, chronic myeloid leukemia, BRC:ABL, 72 hours. The protocol:
as §1

A further data set relates to THP-1. As to the kind of experiment: XTT cell viability assay, THP-1. Conditions: Homo sapiens, THP-1, 72 h, read-out: Viability IC50. The format is cell-based. The protocol: as §1
The subject of data set [1] is EWS:Fli1+ cells. Nature of the data set: XTT cell viability assay, average over EWS:Fli1+ cell lines. The note with it: read-out: average IC50 against EWS:Fli1+ cells. The format is cell-based. The protocol:
as §1

The subject of the next data set is NR0B1. As to the kind of experiment: Western blotting, NR0B1 protein expression. The format is cell-based. Conditions: 10 nM, 24 hours; compared with saline control, p<0.0471. The protocol: (§2) Western Blotting. Expression Western blotting was performed to assess the expression of NR0B1 (EWS:Fli1 target gene) and Rad 51 (DNA homologous recombination repair HRR) at protein level as provisory described in Lin et al 2021. Briefly, cells were grown to ˜70% confluence and exposed to 10 nM of MithA/MANP (final concentration) or DMSO, (0.01% v/v) vehicle and blank polymer for 24 hours. Lysates were collected in cold RIPA lysis buffer supplemented with 1×HALT protease/phosphatase inhibitor cocktail (Thermo Scientific) and clarified by centrifugation. Protein concentration of the supernatant was determined by BCA assay (Thermo Scientific), and then diluted in 4× loading buffer (Licor Inc., Lincoln, Nebr.) containing 1× NuPAGE reducing agent (Life Technologies). Prior to electrophoresis, samples were denatured by incubating at 70° C. for 10 minutes. Samples were then resolved (25 μg/lane) on 4-20% gradient SDS-PAGE gels and transferred to low-fluorescence PVDF membranes (Bio-Rad Inc., Hercules Calif.). Transfer efficiency and equivalence of total protein load was assessed using Revert 700 Total Protein Stain kits (Licor Inc). Membranes were then washed, blocked in Odyssey Blocking Buffer (PBS) (Licor Inc), and incubated with primary antibodies (Table S4.3 above) overnight at 4° C. diluted in blocking buffer.
(A western blot detects proteins with antibodies after separation by electrophoresis.)

For data set [2], the system named is Rad51. As to the kind of experiment: Western blotting, Rad51 protein expression. The format is cell-based. Conditions: 10 nM, 24 hours. The protocol:
as §2

In data set [3] the test system is Rad51. Nature of the data set: RT-qPCR, Rad51 mRNA expression. The format is cell-based. Conditions: 10 nM, 3 cell lines tested. The protocol: Assessment of mRNA expression by RT-qPCR. Total RNA was extracted from EWS:Fli1^+ cell cultures (TC-71, A673, and RD-ES) exposed to 10 nM of MithA/MANP (final concentration) or DMSO, (0.01% v/v) vehicle and blank polymer for 24 hours by the RNeasy technique with RNeasy columns with on-column DNAse I digestion (Qiagen, Valencia, Calif.) according to the manufacturer's instructions. The concentration and purity of the extracts were determined by UV absorbance at 230/260/280/320 nm wavelengths using a Tecan Infinite M200 spectrophotometer. Template cDNA was synthesized from […] of RNA extract by reverse-transcription using the Quantitect RT kit (Qiagen). Oligonucleotide primer sequences and more detailed information described in Supplemental Table S4). RT-PCR was performed using Quantitect SYBR-green qPCR reagents in a Mastercycler ep Realplex2 instrument (Eppendorf AG, Hamburg, Germany). […] Relative quantification of mRNA expression between MithA/MANP or vehicle/blank polymer treated cells were semi-quantitatively calculated by comparing the average threshold cycle (Ct) for the treated samples to the average Ct for untreated samples (Vehicle or blank polymer. Amplification efficiency was determined for each primer set, and the Pfaffl equation to determine relative fold change in gene expression. Beta-actin was used as the housekeeping gene for normalization.
A general note: Real-time PCR tracks product formation cycle by cycle.

For data set [4], the system named is EWS:Fli1+ cells. The note with it: previous study; read-out: average IC50 in EWS:Fli1 cell lines, previous study; cited from earlier work.
For data set [5] the following is noted: cited from earlier work.
The conditions of data set [6]: human, in vivo; cited from earlier work.

Consider `CO[C@H](C(=O)[C@@H](O)[C@@H](C)O)[C@@H]1Cc2cc3cc(O[C@H]4C[C@@H](O[C@H]5C[C@@H](O)[C@H](O)[C@@H](C)O5)[C@H](O)[C@@H](C)O4)c(C)c(O)c3c(O)c2C(=O)[C@H]1O[C@H]1C[C@@H](O[C@H]2C[C@@H](O[C@H]3C[C@](C)(O)[C@H](O)[C@@H](C)O3)[C@@H](O)[C@@H](C)O2)[C@H](O)[C@@H](C)O1` [MithA, (2S,3S)-2-[(2S,4R,5R,6R)-4-[(2S,4R,5S,6R)-4-[(2S,4S,5R,6R)-4,5-dihydroxy-4,6-dimethyloxan-2-yl]oxy-5-hydroxy-6-methyloxan-2-yl]oxy-5-hydroxy-6-methyloxan-2-yl]oxy-3-[(1 S,3S,4R)-3,4-dihydroxy-1-methoxy-2-oxopentyl]-6-[(2S,4R,5R,6R)-4-[(2S,4R,5S,6R)-4,5-dihydroxy-6-methyloxan-2-yl]oxy-5-hydroxy-6-methyloxan-2-yl]oxy-8,9-dihydroxy-7-methyl-3,4-dihydro-2H-anthracen-1-one], for which the IC50 in the data set on RD-ES stood at 6.2 nM; in the data set on SK-ES-1, 11.9 nM; in the data set on TC-71, 9.3 nM; in the data set with HEK293.T it was 90.4 nM; in the data set on HepG2 (Homo sapiens, HepG2, 72 h, read-out: Viability IC50, HepG2, hepatoblastoma), 24.9 nM; in the data set on HepG2 (read-out: Viability IC50, HepG2, hepatoblastoma, 72 hours), 24.9 nM. The half-maximal inhibitory concentration (IC50) was 37.8 nM in the data set with MEG-01, 234 nM in the data set on THP-1, 10 nM with EWS:Fli1+ cells [1] and 12 nM in the data set with EWS:Fli1+ cells [4]. In addition, the NR0B1 protein expression result with NR0B1 is “significantly suppressed”. Besides, the Rad51 protein expression result in the data set with Rad51 [2] is recorded as “Down-regulated”. Moreover, the “Rad51 mRNA expression” value in the data set with Rad51 [3] is “unable to detect significant inhibition”. Also, in [5] (dose escalation, single-agent therapy), the “patients with reversible grade 4 ALT/AST elevation” value is 2/8 and 2 out of 8. For the same compound, the serum level reached in data set [5] (level hypothesized to inhibit EWS:Fli1 activity, not reached before adverse effects) was below 50 nM. In addition, in [6], the “ALT and AST elevations, increase in geometric mean” value is recorded as “greater than 13 fold”. Further, in data set [6], the “treated patients who developed hepatotoxicity” value is 10/12.
